# Assay results: PubChem BioAssay AID2060483 (Molecular Pharmacology Branch, DTP, NCI, 2025)
# Several values for one entry are separate records, joined by “and”; a condition that tells them apart may be missing. Equal values may be shown once.
# System: K24384-001-R-PDC complex spheroids, viability
# Assay: Anticancer human tumor K24384-001-R-PDC patient-derived pancreatic adenocarcinoma cell line growth inhibition [GQUAD]
# Details: for viability, T/C: stronger effect = lower value
# From the text: DNA G-quadruplex Stabilizer Agents in Combinations in Complex Spheroids
# A high-throughput screen of multi-cell type tumor spheroids was designed to identify active combinations of DNA G-quadruplex stabilizer agents and targeted small molecules. Complex spheroids include a stromal component modeled by human endothelial cells (HUVEC) and fibroblasts modeled by human mesenchymal stem cells (MSCs). The concentration ranges selected for each drug and investigational agent were based upon clinically achievable concentrations if the clinical Cmax of the agent was known.
# Compounds. The drugs and investigational agents: pidnarulex (CX-5461; NSC782164), APTO-253 (NSC789042), BRACO-19 (NSC847499), peposertib (NSC802822), ceralasertib (NSC780249), elimusertib (NSC800525), camonsertib (NSC841442), AZD-1390 (NSC803789), olaparib (NSC753686), talazoparib (NSC767125), ART-558 (NSC835418), sotorasib (NSC818433), MRTX-1133 (NSC836407), SN-38 (NSC673596), topotecan (NSC609699), etoposide (NSC141540), doxorubicin (NSC123127), gemcitabine (NSC613327), 5-fluorouracil (NSC19893), paclitaxel (NSC125973), vemurafenib (NSC761431), panobinostat (NSC761190), R-306465 (JNJ-16241199; NSC773264), adavosertib (NSC754352), TP-3654 (NSC805149), carboplatin (NSC241240), KSQ-4279 (NSC840948), and staurosporine (NSC755774) were obtained from the National Cancer Institute (NCI) Developmental Therapeutics Program Chemical Repository (34). The FDA-approved anticancer drug set is available from the NCI Developmental Therapeutics Program. […] The stock solutions were prepared in dimethyl sulfoxide (DMSO, Sigma-Aldrich, St. Louis, MO, cat. D2650) at 800-fold the tested concentration and stored at -70 degrees C prior to their use. All drugs and investigational agents were tested over a range starting from a high concentration at or near the clinical Cmax and decreasing in half-log increments. If the clinical Cmax for an agent had not been determined, the highest concentration tested was 10 microM.
# 2.3 Cell Culture. All cells were maintained in an incubator at 37 degrees C and 5% CO2 with 95% humidity. The PDC lines were cultured according to standard operating procedures established by the NCI PDMR. All PDCs were thawed and cultured in Matrigel-coated flasks prepared with a working solution of 1X Ham's F-12 nutrient mix, without supplementation (Invitrogen, cat. 11765054), 100 U/mL penicillin-streptomycin (Invitrogen, cat. 15140122), and 2.5% Matrigel (Corning Inc., cat. 354248) for the first three passages. The 857933-349-R-J2-PDC line was cultured in 6C/Colon 1B media, which includes advanced DMEM/F-12 (Thermo Fisher Scientific, cat. 12634028), 10 mM HEPES (Thermo Fisher Scientific, cat. 15630080), 1X GlutaMAX supplement (Thermo Fisher Scientific, cat. 35050061), 0.1 mg/mL primocin (InvivoGen, cat. ant-pm-2), 10% defined fetal bovine serum, heat inactivated (HyClone Laboratories Inc., cat. SH30070.03HI), 50% L-WRN conditioned media (ATCC, cat. CRL-3276), 1.25 mM N-Acetyl-L-cysteine (Sigma-Aldrich, cat. A9165), 10 mM nicotinamide (Sigma-Aldrich, cat. N0636), 1X B-27 supplement (Thermo Fisher Scientific, cat. 17504044), 1X N-2 supplement (Thermo Fisher Scientific, cat. 17502048), 10 microM Y-27632 dihydrochloride (Tocris Bioscience, cat. 1254), and 50 ng/mL human EGF recombinant protein (Thermo Fisher Scientific, cat. PHG0311). The 485176-168-R4-J1-PDC line was cultured in Panc media, which includes all 6C/Colon 1B media components plus 100 ng/mL human FGF-10 (Thermo Fisher Scientific, cat. 100-26), 500 nM SB-431542 (Selleckchem, cat. S1067), and gastrin (Tocris, cat. 3006).
# […]
# 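Further: spheroids exposed to compounds for seven days.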
smiles,measurement,setting,value
Cn1ncnc1[C@H]1c2n[nH]c(=O)c3cc(F)cc(c23)N[C@@H]1c1ccc(F)cc1,"viability, T/C",compound 0.000999 µM,112% and 100% and 116%
same,"viability, T/C",compound 0.00316 µM,106% and 95% and 96.9%
same,"viability, T/C",compound 0.00999 µM,109% and 76.1% and 136%
same,"viability, T/C",compound 0.0316 µM,79.5% and 80.1% and 87.8%
same,"viability, T/C",compound 0.0999 µM,88.6% and 88.1% and 99.9%
same,"viability, T/C",compound 0.316 µM,85.2% and 80.7% and 93.3%
same,IC50,curve of compound,> 316 nM
C=CCn1c(=O)c2cnc(Nc3ccc(N4CCN(C)CC4)cc3)nc2n1-c1cccc(C(C)(C)O)n1 + Cc1cnc(CNC(=O)c2c(=O)c3ccc(N4CCCN(C)CC4)nc3n3c2sc2ccccc23)cn1,IC50,"curve of first compound, second compound 0.0316 µM",487 nM
same,IC50,"curve of first compound, second compound 0.1 µM",350 nM
same,IC50,"curve of first compound, second compound 0.316 µM",< 31.6 nM
same,IC50,"curve of first compound, second compound 1 µM",< 31.6 nM
same,IC50,"curve of first compound, second compound 3.16 µM",< 31.6 nM
same,IC50,"curve of first compound, second compound 10 µM",< 31.6 nM
same,"viability, T/C","second compound 0.0316 µM, first compound 0.0316 µM",63.6%
same,"viability, T/C","second compound 0.0316 µM, first compound 0.1 µM",76.6%
same,"viability, T/C","second compound 0.0316 µM, first compound 0.316 µM",68.1%
same,"viability, T/C","second compound 0.0316 µM, first compound 1 µM",18.3%
same,"viability, T/C","second compound 0.0316 µM, first compound 3.16 µM",17.8%
same,"viability, T/C","second compound 0.0316 µM, first compound 10 µM",23.2%
same,"viability, T/C","second compound 0.1 µM, first compound 0.0316 µM",53.3%
same,"viability, T/C","second compound 0.1 µM, first compound 0.1 µM",65.2%
same,"viability, T/C","second compound 0.1 µM, first compound 0.316 µM",51.4%
same,"viability, T/C","second compound 0.1 µM, first compound 1 µM",27.1%
same,"viability, T/C","second compound 0.1 µM, first compound 3.16 µM",19.8%
same,"viability, T/C","second compound 0.1 µM, first compound 10 µM",18.1%
same,"viability, T/C","second compound 0.316 µM, first compound 0.0316 µM",45.5%
same,"viability, T/C","second compound 0.316 µM, first compound 0.1 µM",50.1%
same,"viability, T/C","second compound 0.316 µM, first compound 0.316 µM",37.1%
same,"viability, T/C","second compound 0.316 µM, first compound 1 µM",26.7%
same,"viability, T/C","second compound 0.316 µM, first compound 3.16 µM",22.6%
same,"viability, T/C","second compound 0.316 µM, first compound 10 µM",17.5%
same,"viability, T/C","second compound 1 µM, first compound 0.0316 µM",30.5%
same,"viability, T/C","second compound 1 µM, first compound 0.1 µM",49.7%
same,"viability, T/C","second compound 1 µM, first compound 0.316 µM",34.9%
same,"viability, T/C","second compound 1 µM, first compound 1 µM",36.9%
same,"viability, T/C","second compound 1 µM, first compound 3.16 µM",27.1%
same,"viability, T/C","second compound 1 µM, first compound 10 µM",22.9%
same,"viability, T/C","second compound 3.16 µM, first compound 0.0316 µM",36.4%
same,"viability, T/C","second compound 3.16 µM, first compound 0.1 µM",39.7%
same,"viability, T/C","second compound 3.16 µM, first compound 0.316 µM",28.1%
same,"viability, T/C","second compound 3.16 µM, first compound 1 µM",31.8%
same,"viability, T/C","second compound 3.16 µM, first compound 3.16 µM",26%
same,"viability, T/C","second compound 3.16 µM, first compound 10 µM",15.8%
same,"viability, T/C","second compound 10 µM, first compound 0.0316 µM",10%
same,"viability, T/C","second compound 10 µM, first compound 0.1 µM",10.6%
same,"viability, T/C","second compound 10 µM, first compound 0.316 µM",18%
same,"viability, T/C","second compound 10 µM, first compound 1 µM",6.25%
same,"viability, T/C","second compound 10 µM, first compound 3.16 µM",0.39%
same,"viability, T/C","second compound 10 µM, first compound 10 µM",0.2%
